Experimental data reported in patent US8134006B2, “Dialkylphenyl compounds having β2 adrenergic receptor agonist and muscarinic receptor antagonist activity” (Theravance, Inc., priority 2006, dated 2012).

How the values were obtained:
cM5 receptor = cM5 receptor (UniProt Q5IS53); assay: Blockade of agonist-mediated calcium release via FLIPR; assay type: cell-based; conditions: CHO cells expressing cM5, read-out: Kobs
Method: In this functional assay, the functional potency of a test compound as an antagonist of hM1, hM3 and […] receptors was determined by measuring the ability of the test compound to inhibit agonist-mediated increases in intracellular calcium.
CHO cells stably expressing the receptors were seeded into 96-well FLIPR plates the night before the assay was done. Seeded cells were washed twice with FLIPR buffer (10 mM HEPES, pH 7.4, 2 mM calcium chloride, 2.5 mM probenecid in Hank's Buffered Salt Solution (HBSS) without calcium and magnesium) using Cellwash (MTX Labsystems, Inc.) to remove growth media. After washing, each well contained 50 μL of FLIPR buffer. […]
The dose-dependent stimulation of intracellular Ca^2+ release for oxotremorine was determined so that the test compound could be measured against oxotremorine stimulation at an EC90 concentration. […]
The parameters used for the FLIPR were: exposure length of 0.4 seconds, laser strength of 0.5 watts, excitation wavelength of 488 nm, and emission wavelength of 550 nm. Baseline was determined by measuring the change in fluorescence for 10 seconds prior to addition of oxotremorine. Following oxotremorine stimulation, the FLIPR continuously measured the change of fluorescence every 0.5 to 1 second for 1.5 minutes to capture the maximum fluorescence change. […]

[1] = target: T1, human β2 adrenergic receptor (Homo sapiens, UniProt P07550); assay: Whole-cell cAMP Flashplate assay with lung epithelial cell line (BEAS-2B) endogenously expressing β2 receptor; assay type: cell-based; conditions: BEAS-2B cells, compared with full β2 agonist isoproterenol (1.0)
T1 construct: a cell line expressing endogenous levels of the β2 adrenergic receptor; host or cells: BEAS-2B human lung epithelial cell line
Method: In this assay, the agonist potency and intrinsic activity of a test compound were determined using a cell line expressing endogenous levels of the β2 adrenergic receptor.
On the day of the assay, cells were rinsed with PBS, lifted by scraping with 5 mM EDTA in PBS, and counted. Cells were pelleted by centrifugation at 1,000 rpm and re-suspended in stimulation buffer pre-warmed to 37° C. at a final concentration of 600,000 cells/mL. Cells were used at a final concentration of 100,000 to 120,000 cells/well in this assay. […] Plates were sealed, incubated over night at 4° C. and counted the next morning in a Topcount scintillation counter (Packard BioScience Co., Meriden, Conn.). […] Data were analyzed by nonlinear regression analysis with the GraphPad Prism Software package (GraphPad Software, Inc., San Diego, Calif.) using the 4-parameter model for sigmoidal dose-response.

bronchoconstriction = assay: Einthoven assay, duration of bronchoprotection; conditions: inhalation
Method: (§1) In this assay, the bronchoprotective efficacy and duration of test compounds were determined using guinea pigs. […] In this assay, changes in ventilation pressure serve as a surrogate measure of airway resistance. Following pre-treatment with a test compound, muscarinic antagonist potency was determined using bronchoconstrictor dose-response curves to intravenous methacholine in the presence of propranolol. Similarly, β2 agonist bronchoprotective potency was determined using histamine. Combined bronchoprotective potency was determined using methacholine in the absence of propranolol.
(§2) The assay was conducted using male Duncan-Hartley guinea pigs (Harlan, Indianapolis, Ind.), weighing between 250 and 400 g. A test compound or vehicle (i.e., sterile water) was dosed by inhalation (IH) over a 10 minute time period in a whole body exposure dosing chamber (R+S Molds, San Carlos, Calif.) using 5 mL of dosing solution. […] Pulmonary function was evaluated at various time points after inhalation dosing.
(§3) The trachea was then dissected free and cannulated with a 14G needle (#NE-014, Small Parts, Miami Lakes, Fla.). […] Body temperature was maintained at 37° C. using a heating pad. […] The changes in VP were recorded on a Biopac Windows data collection interface. […] Changes in VP were recorded using the Acknowledge Data Collection Software (Santa Barbara, Calif.). […]
(§4) Change in VP was measured in cm of water. […]

[2] = test system: histamine-induced bronchoconstriction; assay: Einthoven assay, bronchoprotective efficacy against histamine; conditions: 1.5 hours post-dose, inhalation
Method: as §1, §2, §3, §4

[3] = test system: methacholine-induced bronchoconstriction; assay: Einthoven assay, bronchoprotective efficacy against methacholine; conditions: 1.5 hours post-dose, inhalation
Method: as §1, §2, §3, §4

[4] = test system: acetylcholine or histamine bronchoconstriction; assay: Plethysmograph guinea pig assay for bronchoprotective efficacy and duration; conditions: doses ranging from 3 μg/mL to 300 μg/mL, inhalation
Method: In this assay, the bronchoprotective efficacy and duration of test compounds was determined using a guinea pig assay.
Groups of 6 male guinea pigs (Duncan-Hartley (HsdPoc:DH) Harlan, Madison, Wis.) weighing between 250 and 350 g were individually identified by cage cards. Throughout the study, animals were allowed access to food and water ad libitum. Test compounds were administered via inhalation over 10 minutes in a whole-body exposure dosing chamber (R&S Molds, San Carlos, Calif.). The dosing chambers were arranged so that an aerosol was simultaneously delivered to 6 individual chambers from a central manifold. Guinea pigs were exposed to an aerosol of a test compound or vehicle (WFI). […] The gas flow through the nebulizer at this operating pressure was approximately 3 L per minute. […] This value was measured gravimetrically by comparing pre- and post-nebulization weights of the filled nebulizer. […]
The pulmonary evaluation was initiated after determining that baseline values were within the range of 0.3 to 0.9 mL per cm H2O for compliance and within the range of 0.1 to 0.199 cm H2O per mL per second for resistance. […] The changes in volume over time that occurred within the plethysmograph with each breath were measured via a Buxco pressure transducer. By integrating this signal over time, a measurement of flow was calculated for each breth. […]

Chain of cM5 receptor (Q5IS53 whole entry): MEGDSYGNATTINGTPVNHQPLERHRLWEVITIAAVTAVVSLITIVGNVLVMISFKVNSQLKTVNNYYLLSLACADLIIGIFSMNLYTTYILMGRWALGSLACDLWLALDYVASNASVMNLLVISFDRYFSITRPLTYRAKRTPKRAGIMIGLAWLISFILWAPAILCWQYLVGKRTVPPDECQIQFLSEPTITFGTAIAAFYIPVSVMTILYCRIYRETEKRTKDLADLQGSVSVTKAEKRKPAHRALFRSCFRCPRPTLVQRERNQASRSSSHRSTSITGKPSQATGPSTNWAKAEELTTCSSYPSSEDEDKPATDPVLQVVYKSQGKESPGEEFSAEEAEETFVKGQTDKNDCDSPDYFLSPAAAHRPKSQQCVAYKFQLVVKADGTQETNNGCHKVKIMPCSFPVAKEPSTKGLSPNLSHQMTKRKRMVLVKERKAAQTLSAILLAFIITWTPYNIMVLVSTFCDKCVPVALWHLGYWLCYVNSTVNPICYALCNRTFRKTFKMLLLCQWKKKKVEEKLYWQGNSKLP
T1 sequence (P07550 whole entry): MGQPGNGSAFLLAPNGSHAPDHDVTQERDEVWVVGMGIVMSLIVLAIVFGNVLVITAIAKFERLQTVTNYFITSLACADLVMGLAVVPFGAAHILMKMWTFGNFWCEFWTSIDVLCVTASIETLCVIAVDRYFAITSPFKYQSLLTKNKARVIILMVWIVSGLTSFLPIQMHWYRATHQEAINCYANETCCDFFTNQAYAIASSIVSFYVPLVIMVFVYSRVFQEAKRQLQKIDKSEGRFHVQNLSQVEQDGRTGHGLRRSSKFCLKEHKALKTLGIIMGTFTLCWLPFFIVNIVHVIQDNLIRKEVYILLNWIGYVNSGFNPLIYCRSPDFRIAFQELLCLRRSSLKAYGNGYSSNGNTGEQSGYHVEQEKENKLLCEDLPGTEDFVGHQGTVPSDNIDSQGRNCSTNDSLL

Cc1cc(NC(=O)CCN2CCC(OC(=O)Nc3ccccc3-c3ccccc3)CC2)c(C)cc1CNC[C@H](O)c1ccc(O)c(NC=O)c1 [compound IIa, biphenyl-2-ylcarbamic acid 1-[2-(4-{[(R)-2-(3-formylamino-4-hydroxyphenyl)-2-hydroxyethylamino]methyl}-2,5-dimethylphenylcarbamoyl)ethyl]piperidin-4-yl ester]
Ki (cM5 receptor): < 10 nM
intrinsic activity [1]: greater than 0.3
duration of significant bronchoprotection (bronchoconstriction; single sub-maximal dose 100 μg/mL): up to 72 hours
ID50 [2]: less than 50 μg/mL
ID50 [3]: less than 50 μg/mL

O=CNc1cc([C@@H](O)CNCc2ccc(NC(=O)CCN3CCC(OC(=O)Nc4ccccc4-c4ccccc4)CC3)cc2)ccc1O [compound 50]
bronchoprotection at 24 hours post-dose [4]: no significant bronchoprotection

C[N+]1(C)[C@@H]2C[C@@H](OC(=O)C(O)(c3cccs3)c3cccs3)C[C@H]1[C@@H]1O[C@@H]12 [tiotropium, reference compound]
duration of significant bronchoprotection (bronchoconstriction; 10 μg/mL): greater than 72 hours
